# Experimental data from US20250241906A1, “ANABOLIC DRUGS STIMULATING TYPE II COLLAGEN PRODUCTION FROM CHONDROCYTES OR THEIR PROGENITORS” (UNIVERSITY OF CENTRAL FLORIDA RESEARCH FOUNDATION, INC., priority 2022, published 2025).
# Structures can show the parent of a compound that is named as a salt.
# B1: FGF18: growth factor cited for dose scaling (protein, UniProt O76093 28-207, looked up)
# Fibroblast growth factor 18: EENVDFRIHVENQTRARDDVSRKQLRLYQLYSRTSGKHIQVLGRRISARGEDGDKYAQLLVETDTFGSQVRIKGKETEFYLCMNRKGKLVGKPDGTSKECVFIEKVLENNYTALMSAKYSGWYVGFTKKGRPRKGPKTRENQQDVHFMKRYPKGQPELQKPFKYTTVTKRSRRIRPTHPA
# Key:
# [1] = tested on: type II collagen promoter (COL2A1-Gaussia luciferase) in primary human chondrocytes; assay: HuCol2gLuc 3D aggregate type II collagen promoter-driven Gaussia luciferase assay; assay type: cell-based; settings: for stimulation of type II collagen production in the screen of natural products: NCI Natural Products Set V, 5 μM continuously, 22-day assay
# Procedure: Chondrogenic Culture. Human COL2A1-GLuc or uninfected cells were thawed and seeded in growth media on synoviocyte matrix at 6,000 cells/cm^2 and expanded to 90-100% confluence in physioxia. Cells were trypsinized (0.25% Trypsin/EDTA; Corning), resuspended in growth media (for monolayer culture) or chondrogenic differentiation media for 3D aggregates (93.24% High-Glucose DMEM (Gibco), 1% dexamethasone 10^−5M (Sigma), 1% ITS+premix (Becton-Dickinson), 1% Glutamax (Hyclone), 1% 100 mM Sodium Pyruvate (Hyclone), 1% MEM Non-Essential Amino Acids (Hyclone), 0.26% L-Ascorbic Acid Phosphate 50 mM (Wako), 0.5% Fungizone (Life Technologies) with TGF-β1 (Peprotech) and seeded as described below.
# Generation and Maintenance of 3D aggregates. To generate 3D aggregates, cells were seeded at 50,000 cells per well (in 96-well cell repellent u-bottom plates, GreinerBio) and then centrifuged at 500 RCF, 5 min. For the initial drug screen, aggregates were cultured in basal chondrogenic media (1 ng/ml TGF-β1) alone, with DMSO (vehicle control) or 5 μM of the drug compounds from the NCI library (Natural Products V, NCI). For candidate validation and subsequent studies aggregates were cultured in basal chondrogenic media (10 ng/ml TGF-β1) alone, with DMSO (vehicle control) or compounds as indicated in the results. Aggregates were cultured for three weeks in physioxic conditions, culture medium was sampled and replaced three times a week with fresh medium. An OT-2 (Opentrons) python coded robotic pipette, programmed at an aspiration height of 2 mm from the bottom of the wells and aspiration rate of 40 μl/s was utilized for addition of compound, cell feeding, and media sampling for luciferase assay. After three weeks, cell aggregates were either fixed in neutral buffered formalin for histology or medium removed and aggregates frozen dry (−20° C.) for biochemical assays.
# (§1) Luciferase Assay. Conditioned culture medium sampled from aggregates in 96-wells (20 μL/well) was assessed using a stabilized Gaussia Luciferase buffer mix (50 µl/well) for a final concentration of 0.09 M MES, 0.15M Ascorbic Acid, and 4.2 μM Coelenterazine in white 96-well plates. Luminescence was measured in a plate reader (25° C., relative light units (RLU), En Vision plate reader). An OT-2 (Opentrons) python coded robotic pipette was utilized for luciferase buffer addition to white plates (GreinerBio).
# [2] = tested on: type II collagen promoter (COL2A1-GLuc) in primary rabbit chondrocytes; assay: COL2A1-GLuc primary rabbit chondrocyte 3D aggregate luciferase assay; assay type: cell-based; settings: day 21; for luminescence: basal media alone ~40,000 RLU; for luminescence with a single vitamin or mineral vs basal media alone: one factor at a time
# Procedure: Chondrogenic Culture. Rabbit COL2A1-GLuc were thawed and seeded in growth media at 6000 cells/cm^2 and expanded to 90-100% confluence in physioxia. Cells were trypsinized (0.25% Trypsin/EDTA; Corning), resuspended in basal chondrogenic media (93.24% High-Glucose DMEM (Gibco), 1% dexamethasone 10^−5 M (Sigma), 1% ITS+premix (Becton-Dickinson), 1% Glutamax (Hyclone), 1% 100 mM Sodium Pyruvate (Hyclone), 1% MEM Non-Essential Amino Acids (Hyclone), 0.26% L-Ascorbic Acid Phosphate 50 mM (Wako), 0.5% Fungizone (Life Technologies) with TGF-β1 (Peprotech) and seeded as described below.
# Generation and Maintenance of 3D Aggregates. To generate 3D aggregates, cells were seeded at 50,000 cells per well (in 96-well cell repellent u-bottom plates, GreinerBio) and then centrifuged at 500 RCF, 5 min. For the TGF-β1 dose response studies, that serve as positive controls for the reporter cells, aggregates were cultured in basal chondrogenic media and different concentrations of TGF-β1 ranging from 0-10 ng/ml. For the DoE studies, aggregates were cultured in basal chondrogenic media (1 ng/ml TGF-β1) as a control or basal media supplemented with vitamins and minerals (Table 3 and Table 5). Plates were cultured for three weeks in physioxia, media was sampled and replaced three times a week with respective medium. An OT-2 (Opentrons) python coded robotic pipette, programmed at an aspiration height of 2 mm from the bottom of the wells and aspiration rate of 40 μl/s was utilized for media preparation, cell feeding, and media sampling for luciferase assay. After three weeks, cell aggregates were either fixed in neutral buffered formalin for histology or medium removed and aggregates frozen dry (−20° C.) for biochemical assays.
# as §1, with “Cell” for “Conditioned”, “the seeded” for “aggregates in”, “at” for “mix (50 µl/well) for”, “units,” for “units (RLU),”
# [3] = tested on: HuCol2gLuc aggregates; assay: Biochemical assays (DNA, GAG, total collagen) on HuCol2gLuc aggregates; assay type: cell-based, human
# Procedure: Biochemical Assays. Aggregates frozen at day 22, were thawed with PBS, and digested with Papain (25 μg/ml, Sigma, P4762, in 2 mM cysteine; 50 mM sodium phosphate; 2 mM EDTA at a pH 6.5, 100 μl) at 65° C. overnight. Plates were sealed with a qPCR adhesive sealing film (USA Scientific), a silicone sheet, and steel plates clamped to the plate to prevent evaporation during digestion. Half of the digest (50 μl) was transferred to another plate and frozen for hydroxyproline assessment. In the remaining digest, papain was inactivated with 0.1M sodium hydroxide (NaOH, 50 μl) followed by NaOH neutralization (100 mM Na2HPO4, 0.1 N HCL, pH 1.82, 50 μl). To quantitate DNA content, samples of the neutralized digest (20 μl) were combined with buffered Hoechst dye (#33258, 667 ng/ml, phosphate buffer pH 8, 100 μl) and fluorescence measured at an excitation of 365 nm and emission of 460 nm. For GAG assessment, 1,9-Dimethyl-methylene blue solution (195 μl) was added to neutralized digests (5 μl) and absorbance measured at 595 nm and 525 nm. Readings were corrected by subtracting 595 nm reading from 525 nm. Micrograms of DNA and GAG were calculated using a Calf thymus DNA standard (Sigma) or Chondroitin Sulfate standard (Seikagaku Corp.), respectively.
# For hydroxyproline (HP) quantification, the frozen digests (50 μl) were thawed at room temperature and incubated overnight at 105° C. with 6M hydrochloric acid (200 μl). Plates were sealed to prevent evaporation. Samples were then dried at 70° C. overnight with a hydroxyproline standard (Sigma). Copper sulfate (0.15 M, 10 μl) and NaOH (2.5 M, 10 μl) were added to each well and incubated at 50° C. for 5 minutes, followed by hydrogen peroxide (6%, 10 μl) for 10 minutes. Sulfuric acid (1.5 M, 40 μl) and Ehrlich's reagent (20 μl) were added and samples incubated at 70° C. for 15 minutes. Absorbance was measured at 505 nm. Micrograms of hydroxyproline were calculated using the standard. Total collagen was calculated by the following formula (μg of HP×7.6=μg Total Collagen).
# [4] = tested on: rat knee; settings: cited from earlier work
# [5] = validation, donor 2, 10 ng/ml TGF-β1
molecule,measurement,setting,value
6-Hydroxy-2-methoxyaporphine,stimulation of type II collagen production in the screen of natural products,[1],stimulate type II collagen
"COc1cc2c3c(c1O)-c1cc(O)ccc1CC3N(C)CC2 (stereo not drawn) [1,10-Dihydroxy-2-methoxyaporphine]",stimulation of type II collagen production in the screen of natural products,[1],stimulate type II collagen
"Nc1ncnc2c1ncn2C1C=C(CO)C(O)C1O (stereo not drawn) [5-(6-Aminopurin-9-yl)-3-(hydroxymethyl)cyclopent-3-ene-1,2-diol]",stimulation of type II collagen production in the screen of natural products,[1],stimulate type II collagen
COc1cc2c3c(c1O)-c1cc(O)ccc1C[C@@H]3N(C)CC2 [(-)-Apoglaziovine],stimulation of type II collagen production in the screen of natural products,[1],stimulate type II collagen
"c1ccc(N2CCN(Cc3nc4ccccc4[nH]3)CC2)nc1 [ABT 724, reference compound]",luminescence vs untreated control,"[1]; donor 2, 0.1 μM or 1 μM",no effect
same,cumulative luminescence vs untreated controls,"[1]; donor 2, 10 μM and 25 μM",significant increase in luminescence
same,luminescence vs untreated control,"[1]; donor 2, 10 μM and 25 μM, from day 8 to day 22",increase in luminescence
"Nc1nc(=O)c2c([nH]1)NCC(CNc1ccc(C(=O)N[C@@H](CCC(=O)[O-])C(=O)[O-])cc1)N2C=O.[Ca+2] (stereo partly drawn) [Calcium folinate, reference compound]",stimulation of type II collagen production in the screen of natural products,[1],stimulate type II collagen
[Cu] [Copper],luminescence,[2],"~40,000 RLU"
"COC(=O)[C@H]1[C@H]2C[C@@H]3c4[nH]c5ccccc5c4CCN3C[C@H]2C[C@@H](OC(=O)c2cc(OC)c(OC)c(OC)c2)[C@@H]1OC [Drug 204, Deserpidine, reference compound]",stimulation of type II collagen production in the screen of natural products,[1]; listed as 204,stimulatory effects
same,stimulation of type II collagen production in the screen of natural products,[1]; listed as Deserpidine,stimulate type II collagen
same,day 22 luminescence normalized to DMSO vehicle control,"[1]; screen, 5 μM, 1 ng/ml TGF-β1",significant increase in luminescence
same,trend of luminescence over 22 days normalized to DMSO,"[1]; screen, 5 μM, 1 ng/ml TGF-β1",initial decrease in expression with continued increase in luminescence after day 8
same,cumulative luminescence,"[1]; validation, donor 1",no significant increase
same,luminescence over 22 days vs untreated control,"[1]; validation, donor 1, 10 ng/ml TGF-β1",increase in luminescence
same,luminescence over 22 days vs untreated control,[1]; [5],not donor 2
same,glycosaminoglycan (GAG) content,"[3]; day 22, donor 1",no effect on GAG
same,total collagen,"[3]; day 22, donor 1",no significant increase in total collagen
same,DNA content,"[3]; day 22, donor 2, vs untreated",significant decrease in DNA content
same,glycosaminoglycan (GAG) content,"[3]; day 22, donor 2, untreated 15 μg",10 µg
same,total collagen,"[3]; day 22, donor 2, untreated ~14 μg",no significant increase in total collagen
CC(C)=CC(=O)O[C@H]1[C@H]2[C@H](OC(=O)[C@H]2C)[C@H](O)[C@@H](C)[C@@H]2C=CC(=O)[C@]21C [Fastigilin B],stimulation of type II collagen production in the screen of natural products,[1],stimulate type II collagen
"Cl.Cl.Fc1ccc(N2CCN(CCC3OCCc4ccccc43)CC2)cc1 (stereo not drawn) [PNU 96415E, reference compound]",cumulative luminescence vs untreated controls,"[1]; donor 2, 12.5 μM and 25 μM",significant increase in luminescence
same,luminescence vs untreated controls,"[1]; donor 2, 12.5 μM and 25 μM",increased luminescence
C=C1C(=O)OC2C1CCC(C)C1(O)C=CC(=O)C21C (stereo not drawn) [Parthenicin],stimulation of type II collagen production in the screen of natural products,[1],stimulate type II collagen
"CC(=O)CCCCn1c(=O)c2c(ncn2C)n(C)c1=O [Pentoxifylline, reference compound]",stimulation of type II collagen production in the screen of natural products,[1],stimulate type II collagen
"CC(C)CC(=O)Nc1cncc(-c2ccc3[nH]nc(-c4nc5cncc(-c6cccc(F)c6)c5[nH]4)c3c2)c1 [SM04690, reference compound]",in vivo scaled amount,[4],0.3 μg/rat knee
"CC[C@]1(O)C[C@H]2CN(CCc3c([nH]c4ccccc34)[C@@](C(=O)OC)(c3cc4c(cc3OC)N(C=O)[C@H]3[C@@](O)(C(=O)OC)[C@H](OC(C)=O)[C@]5(CC)C=CCN6CC[C@]43[C@@H]65)C2)C1 [Vincristine sulfate, reference compound]",stimulation of type II collagen production in the screen of natural products,[1],stimulate type II collagen
"O=C(O)CCCC[C@@H]1SC[C@@H]2NC(=O)N[C@@H]21 [Vitamin B7, Biotin]",luminescence,[2],"~40,000 RLU"
same,luminescence with a single vitamin or mineral vs basal media alone,[2],higher luminescence
"[Cr] [chromium, Chromium]",luminescence with a single vitamin or mineral vs basal media alone,[2],higher luminescence
"[Co] [cobalt, Cobalt]",luminescence with a single vitamin or mineral vs basal media alone,[2],higher luminescence
"N[C@@H](Cc1cc(I)c(Oc2cc(I)c(O)c(I)c2)c(I)c1)C(=O)O [thyroxine, Thyroxine]",luminescence with a single vitamin or mineral vs basal media alone,[2],higher luminescence
Promoline [Drug 84],luminescence over 22 days vs untreated control,[1]; [5],increased luminescence
Vitamin A,luminescence with a single vitamin or mineral vs basal media alone,[2],detrimental to chondrogenesis
B1,in vivo rat knee efficacy,[4],3-5 μg/knee
